From EPA's ToxRefDB 2

Columns and labels:
[1] = system: rat; details: Sub-acute repeat dose toxicity, Oral, Gavage/Intubation, dose end: 4 day, group: systemic
[2] = system: rat; details: Sub-acute repeat dose toxicity, Oral, Gavage/Intubation, dose end: 4 day, group: systemic; remark: listed apart in the source
[3] = system: rat; details: Sub-acute repeat dose toxicity, Oral, Gavage/Intubation, dose end: 4 day, group: systemic; remark: listed apart in the source
[4] = system: rat; details: Sub-acute repeat dose toxicity, Oral, Gavage/Intubation, dose end: 4 day, group: systemic; remark: listed apart in the source
[5] = system: rat; details: Carcinogenicity, fischer, Oral, Feed, dose end: 78 week, group: systemic
[6] = system: mouse; details: Carcinogenicity, b6c3f1, Oral, Feed, dose end: 80 week, group: systemic
[7] = system: rat; details: Subchronic oral toxicity in rodents, fischer, Feed, dose end: 26 week, group: systemic
[8] = system: dog; details: Sub-acute repeat dose toxicity; beagle; Oral; Gavage/Intubation; dose end: 4 week; group: systemic; systemic / clinical chemistry / alanine aminotransferase (alt/sgpt) / alanine aminotransferase (alt/sgpt) + systemic / clinical chemistry / …
[9] = system: rat; details: Sub-acute repeat dose toxicity, sprague dawley, Oral, Gavage/Intubation, dose end: 4 week, group: systemic
[10] = system: dog; details: Chronic toxicity, beagle, Oral, Feed, dose end: 26 week, group: systemic
[11] = system: rat; details: Combined chronic toxicity/carcinogenicity, fischer, Oral, Feed, dose end: 2 year, group: systemic
[12] = system: rat; details: Multigenerational reproductive toxicity study, wistar, Oral, Feed, dose end: 3 generation
[13] = system: rabbit; details: Prenatal developmental toxicity study, chinchilla, Oral, Gavage/Intubation, dose end: 18 GD, group: maternal
[14] = system: dog; details: Chronic toxicity, beagle, Oral, Feed, dose end: 52 week, group: systemic
[15] = system: dog; details: Subchronic oral toxicity in nonrodent, beagle, Feed, dose end: 13 week, group: systemic, systemic / in life observation / clinical signs / abnormal gait + systemic / in life observation / clinical signs / impaired reflex, nos + …
[16] = system: rat; details: Subchronic oral toxicity in rodents, wistar, Feed, dose end: 13 week
[17] = system: dog; details: Chronic toxicity; beagle; Oral; Feed; dose end: 52 week; group: systemic; systemic / in life observation / clinical signs / abnormal gait + systemic / in life observation / clinical signs / abnormal posture + …
[18] = system: mouse; details: Carcinogenicity, cd1, Oral, Feed, dose end: 80 week, group: systemic
[19] = system: rat; details: Combined chronic toxicity/carcinogenicity, wistar, Oral, Feed, dose end: 104 week, group: systemic
[20] = system: mouse; details: Combined chronic toxicity/carcinogenicity, other, Oral, Feed, dose end: 23 month, group: systemic
[21] = system: rat; details: Prenatal developmental toxicity study, wistar, Oral, Gavage/Intubation, dose end: 15 GD
[22] = system: rat; details: Peri- and post-natal toxicity study (Segment III); sprague dawley; Injection; Subcutaneous; dose end: 22 PND; group: parental; systemic / in life observation / body weight / body weight
[23] = system: rat; details: Prenatal developmental toxicity study; sprague dawley; Injection; Subcutaneous; dose end: 20 GD; group: maternal; reproductive / reproductive performance / premature delivery / premature delivery + systemic / in life observation / body weight / body …
[24] = system: rat; details: Neurotoxicity screening battery, sprague dawley, Injection, Subcutaneous, dose end: 22 week, group: cannot be grouped
[25] = system: rat; details: Carcinogenicity, fischer, Oral, Feed, dose end: 107 week, group: systemic
[26] = system: mouse; details: Carcinogenicity, b6c3f1, Oral, Feed, dose end: 100 week, group: systemic
[27] = systemic / in life observation / clinical signs / abnormal respiratory sounds + systemic / in life observation / clinical signs / fur (…
[28] = systemic / pathology microscopic / liver / necrosis
[29] = systemic / organ weight / liver / absolute
[30] = systemic / organ weight / liver / absolute + systemic / pathology microscopic / liver / necrosis
[31] = systemic / in life observation / body weight / body weight + systemic / in life observation / mortality / mortality + systemic / pathology …
[32] = systemic / pathology microscopic / liver / hepatocellular carcinoma + systemic / pathology microscopic / liver / neoplastic nodule + …
[33] = systemic / pathology microscopic / blood / lymphoma malignant + systemic / pathology microscopic / liver / hepatocellular carcinoma
[34] = systemic / pathology microscopic / liver / hepatocellular carcinoma
[35] = systemic / clinical chemistry / glucose / glucose + systemic / clinical chemistry / potassium / potassium + systemic / clinical chemistry / …
[36] = systemic / hematology / hematocrit (hct) / hematocrit (hct) + systemic / hematology / leukocyte (wbc) count differential / leukocyte (wbc…
[37] = systemic / clinical chemistry / alanine aminotransferase (alt/sgpt) / alanine aminotransferase (alt/sgpt) + systemic / clinical chemistry / …
[38] = systemic / organ weight / liver / absolute + systemic / organ weight / liver / relative to body weight + systemic / organ weight / liver / …
[39] = systemic / in life observation / clinical signs / defecation (diarrhea) + systemic / in life observation / clinical signs / stiffness + …
[40] = systemic / in life observation / body weight / body weight + systemic / in life observation / body weight / body weight gain + systemic / in…
[41] = group: offspring, developmental / offspring survival late / viability index / viability index + systemic / in life observation / body weight / offspring (pup…
[42] = group: offspring, systemic / in life observation / body weight / offspring (pup) weight gain + developmental / offspring survival late / viability index / …
[43] = group: parental, systemic / in life observation / body weight / body weight
[44] = systemic / in life observation / body weight / body weight gain + systemic / in life observation / food consumption / food consumption + …
[45] = systemic / in life observation / clinical signs / ataxia + systemic / in life observation / clinical signs / defecation (diarrhea) + …
[46] = group: cholinesterase, cholinesterase / cholinesterase / cholinesterase / cholinesterase (che)
[47] = group: systemic, systemic / clinical chemistry / chloride / chloride
[48] = systemic / in life observation / body weight / body weight gain
[49] = systemic / in life observation / body weight / body weight gain + systemic / pathology gross / ear / lesion(s) (nos) + systemic / pathology …
[50] = systemic / in life observation / body weight / body weight + systemic / clinical chemistry / [other] / [other] + systemic / organ weight / …
[51] = systemic / clinical chemistry / alkaline phosphatase (alp/alk) / alkaline phosphatase (alp/alk)
[52] = systemic / clinical chemistry / alkaline phosphatase (alp/alk) / alkaline phosphatase (alp/alk) + systemic / in life observation / body …
[53] = group: developmental, developmental / developmental malformation / bone / enlarged fontanel + developmental / developmental malformation / bone / incomplete …
[54] = group: maternal, systemic / in life observation / body weight / body weight gain + systemic / in life observation / food consumption / food consumption + …
[55] = reproductive / reproductive performance / estrous cycle / periodicity + systemic / clinical chemistry / corticosterone / corticosterone + …
[56] = systemic / clinical chemistry / corticosterone / corticosterone + systemic / in life observation / body weight / body weight gain
[57] = systemic / in life observation / body weight / body weight + systemic / pathology microscopic / mammary gland / dilatation + systemic / …
[58] = systemic / pathology microscopic / mammary gland / hyperplasia
[59] = systemic / pathology gross / full gross necropsy / lymphoma malignant + systemic / in life observation / body weight / body weight gain
[60] = systemic / pathology gross / full gross necropsy / lymphoma malignant + systemic / in life observation / body weight / body weight gain + …

CNCc1ccc(S(C)(=O)=O)cc1Oc1ccc(Cl)c(C)c1C
LOAEL [1, 27]: > 500 mg/kg/day
NOAEL [1, 27]: ≥ 500 mg/kg/day
LEL [1, 28]: 30 mg/kg/day
NEL [1, 28]: < 30 mg/kg/day
LOAEL [2, 27]: > 500 mg/kg/day
NOAEL [2, 27]: ≥ 500 mg/kg/day
LEL [2, 28]: 30 mg/kg/day
NEL [2, 28]: < 30 mg/kg/day
LOAEL [3, 29]: > 100 mg/kg/day
NOAEL [3, 29]: ≥ 100 mg/kg/day
LEL [3, 30]: 30 mg/kg/day
NEL [3, 30]: < 30 mg/kg/day
LOAEL [4, 27]: > 500 mg/kg/day
NOAEL [4, 27]: ≥ 500 mg/kg/day
LEL [4, 28]: 30 mg/kg/day
NEL [4, 28]: < 30 mg/kg/day

Nc1ccc2c(c1)C(=O)c1ccccc1C2=O [2-Aminoanthraquinone]
LEL [5, 31]: 100 mg/kg/day
NEL [5, 31]: < 100 mg/kg/day
LOAEL [5, 32]: > 345 mg/kg/day
NOAEL [5, 32]: ≥ 345 mg/kg/day
LOAEL [6, 33]: > 1500 mg/kg/day
NOAEL [6, 33]: ≥ 1500 mg/kg/day
LEL [6, 34]: 750 mg/kg/day
NEL [6, 34]: < 750 mg/kg/day
LEL [7, 35]: 500 mg/kg/day
NEL [7, 35]: < 500 mg/kg/day
LOAEL [7, 36]: > 1000 mg/kg/day
NOAEL [7, 36]: ≥ 1000 mg/kg/day

O=C(NC(=O)c1cc(F)c(F)cc1Cl)Nc1cc(F)ccc1N1CCC(C(=O)O)CC1 [AVE2865]
LEL [8]: 1 mg/kg/day
LOAEL [8]: > 10 mg/kg/day
NEL [8]: < 1 mg/kg/day
NOAEL [8]: ≥ 10 mg/kg/day
LOAEL [9, 37]: 35 mg/kg/day
NOAEL [9, 37]: 5 mg/kg/day
LEL [9, 38]: 5 mg/kg/day
NEL [9, 38]: < 5 mg/kg/day

CC1(C)C(C=C(Cl)Cl)C1C(=O)OC(C#N)c1ccc(F)c(Oc2ccccc2)c1 (stereo unspecified) [Cyfluthrin]
LOAEL [10, 39]: 15 mg/kg/day
NEL [10, 39]: 1.62 mg/kg/day
NOAEL [10, 39]: 5 mg/kg/day
LEL ([10]; systemic / organ weight / thymus / absolute): 5 mg/kg/day
LOAEL ([11]; systemic / in life observation / body weight / body weight + systemic / in life observation / body weight / body weight gain): 11.6 mg/kg/day
NEL [11, 40]: 2.6 mg/kg/day
NOAEL [11, 40]: 2.6 mg/kg/day
LEL ([11]; systemic / in life observation / body weight / body weight + systemic / in life observation / body weight / body weight gain + systemic / …): 11.6 mg/kg/day
LOAEL [12, 41]: 12.3 mg/kg/day
NOAEL [12, 41]: 3.8 mg/kg/day
LEL [12, 42]: 3.8 mg/kg/day
NEL [12, 42]: < 3.8 mg/kg/day
LEL [12, 43]: 3.8 mg/kg/day
NEL [12, 43]: < 3.8 mg/kg/day
LOAEL ([12]; group: parental, systemic / in life observation / body weight / body weight gain): 37.2 mg/kg/day
NOAEL ([12]; group: parental, systemic / in life observation / body weight / body weight gain + systemic / in life observation / body weight / body weight): 12.3 mg/kg/day
LOAEL ([13]; systemic / in life observation / body weight / body weight gain + systemic / in life observation / food consumption / food consumption): 60 mg/kg/day
LEL [13, 44]: 60 mg/kg/day
NEL [13, 44]: 20 mg/kg/day
NOAEL [13, 44]: 20 mg/kg/day
LOAEL ([14]; systemic / in life observation / clinical signs / ataxia): 16 mg/kg/day
LEL [14, 45]: 16 mg/kg/day
NEL [14, 45]: 4 mg/kg/day
NOAEL [14, 45]: 4 mg/kg/day
LEL [15]: 13.9 mg/kg/day
LOAEL [15]: 13.9 mg/kg/day
NEL [15]: 2.36 mg/kg/day
NOAEL [15]: 2.36 mg/kg/day
LEL [16, 46]: 38.9 mg/kg/day
LOAEL [16, 46]: > 38.9 mg/kg/day
NEL [16, 46]: 9.5 mg/kg/day
NOAEL [16, 46]: ≥ 38.9 mg/kg/day
LEL [16, 47]: 2.3 mg/kg/day
NEL [16, 47]: < 2.3 mg/kg/day
NOAEL ([16]; group: systemic, systemic / clinical chemistry / chloride / chloride + systemic / in life observation / body weight / body weight gain + systemic / in life …): 9.5 mg/kg/day
LOAEL ([16]; group: systemic, systemic / in life observation / body weight / body weight gain + systemic / in life observation / clinical signs / lack of coordination + …): 38.9 mg/kg/day
LEL [17]: 10.6 mg/kg/day
LOAEL [17]: 10.6 mg/kg/day
NEL [17]: 2.43 mg/kg/day
NOAEL [17]: 2.43 mg/kg/day
LEL [18, 48]: 31.9 mg/kg/day
NEL [18, 48]: < 31.9 mg/kg/day
LOAEL [18, 49]: 115 mg/kg/day
NOAEL [18, 49]: 31.9 mg/kg/day
LOAEL ([19]; systemic / in life observation / body weight / body weight): 19.2 mg/kg/day
LEL ([19]; systemic / in life observation / body weight / body weight + systemic / clinical chemistry / [other] / [other]): 6.19 mg/kg/day
NEL [19, 50]: 2.02 mg/kg/day
NOAEL [19, 50]: 6.19 mg/kg/day
LEL [20, 51]: 11.6 mg/kg/day
NEL [20, 51]: < 11.6 mg/kg/day
LOAEL [20, 52]: > 194 mg/kg/day
NOAEL [20, 52]: ≥ 194 mg/kg/day
LEL [21, 53]: 40 mg/kg/day
LOAEL [21, 53]: 40 mg/kg/day
NEL [21, 53]: 10 mg/kg/day
NOAEL [21, 53]: 10 mg/kg/day
LOAEL ([21]; group: maternal, systemic / in life observation / body weight / body weight gain + systemic / in life observation / food consumption / food consumption): 10 mg/kg/day
LEL [21, 54]: 10 mg/kg/day
NEL [21, 54]: 3 mg/kg/day
NOAEL [21, 54]: 3 mg/kg/day

C[C@]12C[C@H](O)[C@H]3[C@@H](CCC4=CC(=O)CC[C@@]43C)[C@@H]1CC[C@@H]2C(=O)CO [Corticosterone]
LEL [22]: 40 mg/kg/day
LOAEL [22]: > 40 mg/kg/day
NEL [22]: < 40 mg/kg/day
NOAEL [22]: ≥ 40 mg/kg/day
LEL [23]: 40 mg/kg/day
LOAEL [23]: > 40 mg/kg/day
NEL [23]: < 40 mg/kg/day
NOAEL [23]: ≥ 40 mg/kg/day
LOAEL [24, 55]: > 40 mg/kg/day
NOAEL [24, 55]: ≥ 40 mg/kg/day
LEL [24, 56]: 10 mg/kg/day
NEL [24, 56]: < 10 mg/kg/day

[Ca+2].[N-]=C=[N-] [Calcium cyanamide]
LOAEL [25, 57]: > 10 mg/kg/day
NOAEL [25, 57]: ≥ 10 mg/kg/day
LEL [25, 58]: 5 mg/kg/day
NEL [25, 58]: < 5 mg/kg/day
LEL [26, 59]: 75 mg/kg/day
NEL [26, 59]: < 75 mg/kg/day
LOAEL [26, 60]: > 300 mg/kg/day
NOAEL [26, 60]: ≥ 300 mg/kg/day
